# Assay results as given in patent US20070275968A1, “Substituted Biphenyl Derivative” (priority 2004, published 2007).
row,Structure (SMILES),melting point
1,"Cc1cccc(-c2[nH]c(C(C)C)nc2-c2ccc(F)c(-c3ccc([S+](C)[O-])nc3)c2)n1 (centres unmarked) [Example 128, 5-{2-Fluoro-5-[2-isopropyl-5-(6-methylpyridin-2-yl)-1H-imidazol-4-yl]phenyl}-2-(methylsulfinyl)pyridine]",100 to 102 °C
2,"Cc1cccc(-c2[nH]c(C(C)C)nc2-c2ccc(F)c(-c3ccc(S(C)(=O)=O)nc3)c2)n1 [Example 129, 5-{2-Fluoro-5-[2-isopropyl-5-(6-methylpyridin-2-yl)-1H-imidazol-4-yl]phenyl}-2-(methylsulfonyl)pyridine]",102 to 105 °C
3,"Cc1cccc(-c2[nH]c(C(C)C)nc2-c2ccc(F)c(-c3nc[nH]n3)c2)n1 [Example 133, 2-{4-[4-Fluoro-3-(1H-1,2,4-triazol-3-yl)phenyl]-2-isopropyl-1H-imidazol-5-yl}-6-methylpyridine]",184 to 186 °C
4,"Cc1cccc(-c2[nH]c(C(C)C)nc2-c2ccc(F)c(-c3ncc[nH]3)c2)n1 [Example 134, 2-{4-[4-Fluoro-3-(1H-imidazol-2-yl)phenyl]-2-isopropyl-1H-imidazol-5-yl}-6-methylpyridine]",201 to 205 °C
5,"Cc1cccc(-c2[nH]c(C(C)C)nc2-c2ccc(F)c(-c3cc[nH]n3)c2)n1 [Example 135, 2-{4-[4-Fluoro-3-(1H-pyrazol-3-yl)phenyl]-2-isopropyl-1H-imidazol-5-yl}-6-methylpyridine]",195 to 198 °C
6,"Cc1cccc(-c2[nH]c(C(C)C)nc2-c2ccc(F)c(-c3c[nH]c(=O)[nH]3)c2)n1 [Example 140, 4-{2-Fluoro-5-[2-isopropyl-5-(6-methylpyridin-2-yl)-1H-imidazol-4-yl]phenyl}-1,3-dihydro-2H-imidazol-2-one]",177 to 180 °C
7,"Cc1cccc(-c2[nH]c(C(C)C)nc2-c2ccc(F)c(-c3c[nH]c(C)n3)c2)n1 [Example 141, 2-{4-[4-Fluoro-3-(2-methyl-1H-imidazol-4-yl)phenyl]-2-isopropyl-1H-imidazol-5-yl}-6-methylpyridine]",230 to 234 °C
8,"CCc1nc(-c2cc(-c3nc(C(C)C)[nH]c3-c3cccc(C)n3)ccc2F)c[nH]1 [Example 142, 2-{4-[3-(2-Ethyl-1H-imidazol-4-yl)-4-fluorophenyl]-2-isopropyl-1H-imidazol-5-yl}-6-methylpyridine]",170 to 175 °C
9,"Cc1cccc(-c2n[nH]cc2-c2ccc(F)c(-c3ccc(S(N)(=O)=O)s3)c2)n1 [Example 143, 5-{2-Fluoro-5-[3-(6-methylpyridin-2-yl)-1H-pyrazol-4-yl]phenyl}thiophene-2-sulfonamide]",125 °C
10,"Cc1cccc(-c2n[nH]cc2-c2ccc(F)c(-c3ccc(S(N)(=O)=O)c(F)c3)c2)n1 [Example 147, 2′,3-Difluoro-5′-[3-(6-methylpyridin-2-yl)-1H-pyrazol-4-yl]-1,1′-biphenyl-4-sulfonamide]",119 to 121 °C
11,"Cc1cccc(-c2n[nH]cc2-c2ccc(F)c(-c3ccc(O)c(S(N)(=O)=O)c3)c2)n1 [Example 148, 2′-Fluoro-4-hydroxy-5′-[3-(6-methylpyridin-2-yl)-1H-pyrazol-4-yl]-1,1′-biphenyl-3-sulfonamide]",104 to 109 °C
12,"Cc1cccc(-c2n[nH]cc2-c2ccc(F)c(-c3cc(F)c(S(N)(=O)=O)cc3F)c2)n1 [Example 149, 2,2′,5-Trifluoro-5′-[3-(6-methylpyridin-2-yl)-1H-pyrazol-4-yl]-1,1′-biphenyl-4-sulfonamide]",122 to 125 °C
13,"Cc1cccc(-c2n[nH]cc2-c2ccc(F)c(-c3ccc(S(N)(=O)=O)c(C(F)(F)F)c3)c2)n1 [Example 152, 2′-Fluoro-5′-[3-(6-methylpyridin-2-yl)-1H-pyrazol-4-yl]-3-(trifluoromethyl)-1,1′-biphenyl-4-sulfonamide]",107 to 110 °C
14,"Cc1cccc(-c2n[nH]cc2-c2ccc(F)c(-c3ccc(C(C)(O)CF)cn3)c2)n1 (centres unmarked) [Example 163, 1-Fluoro-2-(6-{2-fluoro-5-[3-(6-methylpyridin-2-yl)-1H-pyrazol-4-yl]phenyl}pyridin-3-yl)propan-2-ol]",174 to 176 °C
15,"Cc1cccc(-c2n[nH]cc2-c2ccc(F)c(-c3ccc(C(C)(O)C(F)(F)F)cn3)c2)n1 (centres unmarked) [Example 164, 1,1,1-Trifluoro-2-(6-{2-fluoro-5-[3-(6-methylpyridin-2-yl)-1H-pyrazol-4-yl]phenyl}pyridin-3-yl)propan-2-ol]",197 to 198 °C
16,"Cc1cccc(-c2n[nH]cc2-c2ccc(F)c(-c3ccc(C(C)O)cn3)c2)n1 (centres unmarked) [Example 165, 1-(6-{2-Fluoro-5-[3-(6-methylpyridin-2-yl)-1H-pyrazol-4-yl]phenyl}pyridin-3-yl)ethanol]",149 to 151 °C
17,"Cc1cccc(-c2n[nH]cc2-c2ccc(F)c(-c3ccc(OCCO)cn3)c2)n1 [Example 166, 2-[(6-{2-Fluoro-5-[3-(6-methylpyridin-2-yl)-1H-pyrazol-4-yl]phenyl}pyridin-3-yl)oxy]ethanol]",148 to 151 °C
18,"Cc1cccc(-c2n[nH]cc2-c2ccc(F)c(-c3ccc(S(=O)(=O)C(F)(F)F)cc3)c2)n1 [Example 168, 2-(4-{6-Fluoro-4′-[(trifluoromethyl)sulfonyl]-1,1′-biphenyl-3-yl}-1H-pyrazol-3-yl)-6-methylpyridine]",81 to 84 °C

row,Structure (SMILES),melting point
1,"Cc1cccc(-c2n[nH]cc2-c2ccc(F)c(-c3ccc(SCCO)cc3)c2)n1 [Example 169, 2-({2′-Fluoro-5′-[3-(6-methylpyridin-2-yl)-1H-pyrazol-4-yl]-1,1′-biphenyl-4-yl}thio)ethanol]",150 to 152 °C
2,"Cc1cccc(-c2n[nH]cc2-c2ccc(F)c(-c3ccc(S(=O)(=O)CCO)cc3)c2)n1 [Example 170, 2-({2′-Fluoro-5′-[3-(6-methylpyridin-2-yl)-1H-pyrazol-4-yl]-1,1′-biphenyl-4-yl}sulfonyl)ethanol]",88 to 90 °C
3,"Cc1cccc(-c2n[nH]cc2-c2ccc(F)c(-c3ccc(S(=O)(=O)C(F)F)cc3)c2)n1 [Example 171, 2-(4-{4′-[(Difluoromethyl)sulfonyl]-6-fluoro-1,1′-biphenyl-3-yl}-1H-pyrazol-3-yl)-6-methylpyridine]",80 to 82 °C
4,"COC(C)(C)c1ccc(-c2cc(-c3c[nH]nc3-c3cccc(C)n3)ccc2F)nc1 [Example 173, 2-{2-Fluoro-5-[3-(6-methylpyridin-2-yl)-1H-pyrazol-4-yl]phenyl}-5-(1-methoxy-1-methylethyl)pyridine]",168 to 169 °C
5,"CCC(O)(CC)c1ccc(-c2cc(-c3c[nH]nc3-c3cccc(C)n3)ccc2F)nc1 [Example 174, 3-(6-{2-Fluoro-5-[3-(6-methylpyridin-2-yl)-1H-pyrazol-4-yl]phenyl}pyridin-3-yl)pentan-3-ol]",94 to 95 °C
6,"Cc1cccc(-c2n[nH]cc2-c2ccc(F)c(-c3cnn(CCN4CCOCC4)c3)c2)n1 [Example 175, 4-[2-(4-{2-Fluoro-5-[3-(6-methylpyridin-2-yl)-1H-pyrazol-4-yl]phenyl}-1H-pyrazol-1-yl)ethyl]morpholine]",124 °C
7,"Cc1cccc(-c2n[nH]cc2-c2ccc(F)c(-c3csc(C(C)(C)O)n3)c2)n1 [Example 178, 2-(4-{2-Fluoro-5-[3-(6-methylpyridin-2-yl)-1H-pyrazol-4-yl]phenyl}-1,3-thiazol-2-yl)propan-2-ol]",78 to 80 °C
8,"Cc1cccc(-c2n[nH]cc2-c2ccc(F)c(-c3csc(CO)n3)c2)n1 [Example 182, (4-{2-Fluoro-5-[3-(6-methylpyridin-2-yl)-1H-pyrazol-4-yl]phenyl}-1,3-thiazol-2-yl)methanol]",89 to 92 °C
9,"Cc1cccc(-c2n[nH]cc2-c2ccc(F)c(-c3ncc(C(C)(C)O)cn3)c2)n1 [Example 183, 2-(2-{2-Fluoro-5-[3-(6-methylpyridin-2-yl)-1H-pyrazol-4-yl]phenyl}pyrimidin-5-yl)propan-2-ol]",162 °C
10,"Cc1cccc(-c2n[nH]cc2-c2ccc(F)c(-c3cn(CCN4CCOCC4)cn3)c2)n1 [Example 185, 4-[2-(4-{2-Fluoro-5-[3-(6-methylpyridin-2-yl)-1H-pyrazol-4-yl]phenyl}-1H-imidazol-1-yl)ethyl]morpholine]",144 to 145 °C
11,"Cc1cccc(-c2n[nH]cc2-c2ccc(F)c(-c3cn(CCN(C)C)cn3)c2)n1 [Example 186, 2-(4-{2-Fluoro-5-[3-(6-methylpyridin-2-yl)-1H-pyrazol-4-yl]phenyl}-1H-imidazol-1-yl)-N,N-dimethylethylamine]",130 to 131 °C
12,"Cc1cccc(-c2n[nH]cc2-c2ccc(F)c(-c3ccc(N4CCN(C)CC4)nc3)c2)n1 [Example 187, 1-(5-{2-Fluoro-5-[3-(6-methylpyridin-2-yl)-1H-pyrazol-4-yl]phenyl}pyridin-2-yl)-4-methylpiperazine]",86 °C
13,"Cc1cccc(-c2n[nH]cc2-c2ccc(F)c(-c3ccc(N4CCN(C)CC4)cn3)c2)n1 [Example 188, 1-(6-{2-Fluoro-5-[3-(6-methylpyridin-2-yl)-1H-pyrazol-4-yl]phenyl}pyridin-3-yl)-4-methylpiperazine]",97 °C
14,"Cc1cccc(-c2n[nH]cc2-c2ccc(F)c(-c3ccc(S(C)(=O)=O)cc3)c2)n1 [Example 191, 2-{4-[6-Fluoro-4′-(methylsulfonyl)-1,1′-biphenyl-3-yl]-1H-pyrazol-3-yl}-6-methylpyridine]",100 to 102 °C
15,"Cc1cccc(-c2n[nH]cc2-c2ccc(F)c(-c3ccc(NC(=O)NN4CCOCC4)cc3)c2)n1 [Example 192, N-{2′-Fluoro-5′-[3-(6-methylpyridin-2-yl)-1H-pyrazol-4-yl]-1,1′-biphenyl-4-yl}-N′-morpholine-4-ylurea]",131 to 133 °C
16,"Cc1cccc(-c2n[nH]cc2-c2ccc(F)c(-c3ccc[nH]3)c2)n1 [Example 193, 2-{4-[4-Fluoro-3-(1H-pyrrol-2-yl)phenyl]-1H-pyrazol-3-yl}-6-methylpyridine]",141 to 142 °C
17,"Cc1cccc(-c2n[nH]cc2-c2ccc(F)c(-c3ccc(O)cc3)c2)n1 [Example 197, 2′-Fluoro-5′-[3-(6-methylpyridin-2-yl)-1H-pyrazol-4-yl]-1,1′-biphenyl-4-ol]",72 to 74 °C
